Holding throughout (format): physicochemical
A short description of data set [1]: Solubility of methocarbamol in different vehicles at various pH conditions. On the procedure:
Solubility of Methocarbamol was carried out in different vehicles at various pH conditions, and the results are presented in Table 1.

Data set [2] can be described thus: Drug-excipient compatibility study: related substance. The following applies: higher temperature conditions. The procedure:
Accurately weighed quantity of methocarbamol, and individual excipients were mixed as per ratio mentioned in the drug-excipient compatibility table. Mixtures were filled in glass vials, plugged using LDPE plugs which were manually punctured.
Filled glass vials were exposed to temperature and humidity conditions i.e. 60° C.±2° C., and 40° C.±2° C./75±5% RH for 4 weeks.

The nature of data set [3]: Photostability study of formulation B3.
Where [4] appears, read: API in Protected Condition (Control).

For orientation: solubility means the concentration that dissolves in the medium under given conditions. Lower therefore signals a poorly soluble substance.

Each structure is given as a SMILES string. In brackets after ≈: the same amount, converted by molar mass.

Take `COc1ccccc1OCC(O)COC(N)=O` (stereo not drawn) [methocarbamol]: the “Vol. req. to dissolve 1500 mg API” value stood at 100.00 mL in data set [1] (0.1N HCl); 98.02 mL in data set [1] (Purified water); 88.96 mL in data set [1] (pH 4.5 acetate buffer); 106.38 mL in data set [1] (pH 6.8 phosphate buffer); 109.96 mL in data set [1] (pH 7.2 phosphate buffer). Besides, the solubility in data set [1] (0.1N HCl, simulated gastric fluid) was 15.5 mg/mL (≈ 64.1 mM); in data set [1] (aqueous buffer, pH 4.5 acetate buffer), 16.9 mg/mL (≈ 69.9 mM); in data set [1] (aqueous buffer, pH 6.8 phosphate buffer), 14.1 mg/mL (≈ 58.4 mM); in data set [1] (aqueous buffer, pH 7.2 phosphate buffer) it was 13.6 mg/mL (≈ 56.5 mM); in data set [1] (purified water, water) it was 15.3 mg/mL (≈ 63.4 mM). In addition, the “Solubility (conclusion)” value in data set [1] (all pH media) is recorded as “high solubility”. In addition, the “Stability of methocarbamol in aqueous phase” value in data set [2] was “probable instability”. The “Assay (%)” value in data set [3] (setting [4]) was determined as 99.2%; in data set [3] (API in open Exposed Condition), 99.8%; in data set [3] (API, Initial), 99.3%. Besides, the “Related Substances: Guaifenesin” value in data set [3] (setting [4]) is 0.01%; in data set [3] (API in open Exposed Condition) it was 0.01%; in data set [3] (API, Initial), 0.03%. Also, the “Related Substances: Methocarbamol Isomer” value in data set [3] (setting [4]) turned out to be 0.01%; in data set [3] (API in open Exposed Condition), 0.02%. Further, the “Related Substances: Total Impurities” value in data set [3] (setting [4]) is 0.02%; in data set [3] (API in open Exposed Condition) it was 0.03%; in data set [3] (API, Initial), 0.03%. Besides, the Description result in data set [3] (Methocarbamol API (Batch no: A), Initial, open Exposed Condition and Protected Condition (Control)) is listed as “White Bulky Powder odorless”.

The values above are taken from patent US12390439B2, “Oral liquid formulation of methocarbamol” (Liqmeds Worldwide Limited, priority 2023, dated 2025).
